Key:
Type in all cases: in vivo
[1] = test system: Echinochloa crus-galli (ECHCG); assay: Herbicidal post-emergence action (D), 320 g/ha; conditions: ca. 3 weeks
Procedure, shortened: (§1)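 Seedlings reaching the single-leaf stage 2 to 3 weeks after sowing in sandy loam received a foliar spray of the formulated compound (WP or EC, 0.5% additive, 600 l water/ha). Damage is rated visually after about 3 weeks in the greenhouse as percent effect relative to untreated plants.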

Setaria viridis (SETVI) [2] = assay: Herbicidal post-emergence action (D), 320 g/ha; conditions: ca. 3 weeks
Procedure, shortened: as §1

Viola tricolor (VIOTR) [3] = assay: Herbicidal post-emergence action (D), 320 g/ha; conditions: ca. 3 weeks
Procedure, shortened: as §1

Veronica persica (VERPE) [4] = assay: Herbicidal post-emergence action (D), 320 g/ha; conditions: ca. 3 weeks
Procedure, shortened: as §1

[5] = test system: Polygonum convolvulus (POLCO); assay: Herbicidal post-emergence action (D), 320 g/ha; conditions: ca. 3 weeks
Procedure, shortened: as §1

[6] = test system: Abutilon theophrasti (ABUTH); assay: Herbicidal post-emergence action (D), 320 g/ha; conditions: ca. 3 weeks
Procedure, shortened: as §1

[7] = test system: Alopecurus myosuroides (ALOMY); assay: Herbicidal post-emergence action (D), 320 g/ha; conditions: ca. 3 weeks
Procedure, shortened: as §1

[8] = test system: Echinochloa crus-galli (ECHCG); assay: Herbicidal pre-emergence action (C), 320 g/ha; conditions: ca. 3 weeks
Procedure, shortened: (§2)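 Greenhouse pre-emergence trial with compounds sprayed onto soil above sown seeds in sandy loam (aqueous WP or EC, 0.5% additive, 600 l water/ha); effect scored by eye at roughly 3 weeks as percent damage versus controls.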

Setaria viridis (SETVI) [9] = assay: Herbicidal pre-emergence action (C), 320 g/ha; conditions: ca. 3 weeks
Procedure, shortened: as §2

Veronica persica (VERPE) [10] = assay: Herbicidal pre-emergence action (C), 320 g/ha; conditions: ca. 3 weeks
Procedure, shortened: as §2

[11] = test system: Matricaria inodora (MATIN); assay: Herbicidal pre-emergence action (C), 320 g/ha; conditions: ca. 3 weeks
Procedure, shortened: as §2

[12] = test system: Alopecurus myosuroides (ALOMY); assay: Herbicidal pre-emergence action (C), 320 g/ha; conditions: ca. 3 weeks
Procedure, shortened: as §2

[13] = test system: Amaranthus retroflexus (AMARE); assay: Herbicidal pre-emergence action (C), 320 g/ha; conditions: ca. 3 weeks
Procedure, shortened: as §2

Lolium rigidum (LOLRI) [14] = assay: Herbicidal pre-emergence action (C), 320 g/ha; conditions: ca. 3 weeks
Procedure, shortened: as §2

Avena fatua [15] = assay: Herbicidal pre-emergence action (C), 320 g/ha; conditions: ca. 3 weeks
Source text: (§3) Seeds of mono- and dicotyledonous weed plants and crop plants were sown, in plastic or organic planting pots, in sandy loam and covered with soil. The compounds according to the invention, formulated in the form of wettable powders (WP) or as emulsifiable concentrates (EC), were applied to the surface of the covering soil as aqueous suspension or emulsion, with the addition of 0.5% of an additive, at an application rate of 600 l of water/ha (converted).
(§4) Following treatment, the pots were placed in a greenhouse and kept under optimum growth conditions for the test plants. The visual grading of the damage to the test plants was carried out after ca. 3 weeks in comparison to untreated controls (herbicidal effect in percent (%): 100% effect=plants have died off, 0% effect=as control plants).
(§5) Tables C1 to C13 below show the effects of selected compounds of the general formula (I) according to table 1 on various harmful plants and an application rate corresponding to 320 g/ha obtained by the experimental procedure mentioned above.

[16] = test system: Abutilon theophrasti (ABUTH); assay: Herbicidal pre-emergence action (C), 320 g/ha; conditions: ca. 3 weeks
Procedure, shortened: as §2

[17] = test system: Echinochloa crus-galli (ECHCG); assay: Herbicidal post-emergence action (B), 1280 g/ha; conditions: rated visually after about 3 weeks vs untreated controls
Procedure, shortened: (§6)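 Greenhouse-grown weeds at the one-leaf stage received a foliar spray of the formulated compound (WP or EC, 0.5% additive, 600 L/ha). Damage was scored visually after about 3 weeks on a 0–100% scale against untreated plants.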

Setaria viridis (SETVI) [18] = assay: Herbicidal post-emergence action (B), 1280 g/ha; conditions: rated visually after about 3 weeks vs untreated controls
Procedure, shortened: as §6

Veronica persica (VERPE) [19] = assay: Herbicidal post-emergence action (B), 1280 g/ha
Procedure, shortened: as §6

Stellaria media (STEME) [20] = assay: Herbicidal post-emergence action (B), 1280 g/ha
Procedure, shortened: as §6

Poa annua (POAAN) [21] = assay: Herbicidal post-emergence action (B), 1280 g/ha; conditions: rated visually after about 3 weeks vs untreated controls
Procedure, shortened: as §6

[22] = test system: Kochia scoparia (KCHSC; Bassia scoparia); assay: Herbicidal post-emergence action (B), 1280 g/ha
Procedure, shortened: as §6

[23] = test system: Amaranthus retroflexus (AMARE); assay: Herbicidal post-emergence action (B), 1280 g/ha; conditions: rated visually after about 3 weeks vs untreated controls
Procedure, shortened: as §6

[24] = test system: Echinochloa crus-galli (ECHCG); assay: Herbicidal pre-emergence action (A), 1280 g/ha; conditions: visual grading after ca. 3 weeks vs untreated controls, 100% = plants have died off, 0% = as control plants
Procedure, shortened: (§7)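 Visual grading of plant damage in percent (0% as untreated control, 100% dead) was done about 3 weeks after treatment. Compounds, as WP or EC in water with 0.5% additive, had been sprayed at 600 l/ha onto the covering soil of freshly sown sandy loam pots.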

Setaria viridis (SETVI) [25] = assay: Herbicidal pre-emergence action (A), 1280 g/ha; conditions: visual grading after ca. 3 weeks vs untreated controls
Procedure, shortened: as §7

Veronica persica (VERPE) [26] = assay: Herbicidal pre-emergence action (A), 1280 g/ha; conditions: visual grading after ca. 3 weeks vs untreated controls
Procedure, shortened: as §7

[27] = test system: Matricaria inodora (MATIN); assay: Herbicidal pre-emergence action (A), 1280 g/ha; conditions: visual grading after ca. 3 weeks vs untreated controls
Procedure, shortened: as §7

Stellaria media (STEME) [28] = assay: Herbicidal pre-emergence action (A), 1280 g/ha; conditions: visual grading after ca. 3 weeks vs untreated controls
Procedure, shortened: as §7

Poa annua (POAAN) [29] = assay: Herbicidal pre-emergence action (A), 1280 g/ha; conditions: visual grading after ca. 3 weeks vs untreated controls, 100% = plants have died off, 0% = as control plants
Procedure, shortened: as §7

[30] = test system: Kochia scoparia (KCHSC; Bassia scoparia); assay: Herbicidal pre-emergence action (A), 1280 g/ha; conditions: visual grading after ca. 3 weeks vs untreated controls
Procedure, shortened: as §7

[31] = test system: Alopecurus myosuroides (ALOMY); assay: Herbicidal pre-emergence action (A), 1280 g/ha; conditions: visual grading after ca. 3 weeks vs untreated controls, 100% = plants have died off, 0% = as control plants
Procedure, shortened: as §7

[32] = test system: Amaranthus retroflexus (AMARE); assay: Herbicidal pre-emergence action (A), 1280 g/ha; conditions: visual grading after ca. 3 weeks vs untreated controls
Procedure, shortened: as §7

Lolium rigidum (LOLRI) [33] = assay: Herbicidal pre-emergence action (A), 1280 g/ha; conditions: visual grading after ca. 3 weeks vs untreated controls, 100% = plants have died off, 0% = as control plants
Procedure, shortened: as §7

Lolium rigidum (LOLRI) [34] = assay: Herbicidal post-emergence action (D), 320 g/ha; conditions: ca. 3 weeks
Procedure, shortened: as §1

Viola tricolor (VIOTR) [35] = assay: Herbicidal pre-emergence action (C), 320 g/ha; conditions: ca. 3 weeks
Procedure, shortened: as §2

[36] = test system: Polygonum convolvulus (POLCO); assay: Herbicidal pre-emergence action (C), 320 g/ha; conditions: ca. 3 weeks
Procedure, shortened: as §2

Avena fatua [37] = assay: Herbicidal post-emergence action (D), 320 g/ha; conditions: ca. 3 weeks
Source text: (§8) Seeds of mono- and dicotyledonous weed plants and crop plants were sown, in plastic or organic planting pots, in sandy loam, covered with soil and grown in a greenhouse under controlled growth conditions. 2 to 3 weeks after sowing, the test plants were sprayed in the single-leaf stage. The compounds according to the invention, formulated in form of wettable powders (WP) or as emulsifiable concentrates (EC), were sprayed onto the green plant parts as aqueous suspension or emulsion, with the addition of 0.5% of an additive, at an application rate of 600 l of water/ha (converted). The test plants were placed in the greenhouse for ca. 3 weeks under optimum growth conditions, and then the effect of the preparations was assessed visually in comparison with untreated controls (herbicidal effect in percent (%): 100% effect=plants have died off, 0% effect=as control plants).
(§9) Tables D1 to D13 below show the effects of selected compounds of the general formula (I) according to table 1 on various harmful plants and an application rate corresponding to 320 g/ha obtained by the experimental procedure mentioned above.

[38] = test system: Amaranthus retroflexus (AMARE); assay: Herbicidal post-emergence action (D), 320 g/ha; conditions: ca. 3 weeks
Procedure, shortened: as §1

[39] = test system: Digitaria sanguinalis (DIGSA); assay: Herbicidal pre-emergence action (C), 320 g/ha; conditions: ca. 3 weeks
Source text: as §3, §4, §5

[40] = test system: Digitaria sanguinalis (DIGSA); assay: Herbicidal post-emergence action (D), 320 g/ha; conditions: ca. 3 weeks
Source text: as §8, §9

[41] = test system: Abutilon theophrasti (ABUTH); assay: Herbicidal post-emergence action (B), 1280 g/ha; conditions: rated visually after about 3 weeks vs untreated controls
Procedure, shortened: as §6

[42] = test system: Alopecurus myosuroides (ALOMY); assay: Herbicidal post-emergence action (B), 1280 g/ha; conditions: rated visually after about 3 weeks vs untreated controls
Procedure, shortened: as §6

Row | SMILES | herbicidal effect ECHCG [1] [%] | herbicidal effect SETVI (Setaria viridis (SETVI) [2]) [%] | herbicidal effect VIOTR (Viola tricolor (VIOTR) [3]) [%] | herbicidal effect VERPE (Veronica persica (VERPE) [4]) [%] | herbicidal effect POLCO [5] [%] | herbicidal effect ABUTH [6] [%] | herbicidal effect ALOMY [7] [%] | herbicidal effect ECHCG [8] [%] | herbicidal effect SETVI (Setaria viridis (SETVI) [9]) [%] | herbicidal effect VERPE (Veronica persica (VERPE) [10]) [%] | herbicidal effect MATIN [11] [%] | herbicidal effect ALOMY [12] [%] | herbicidal effect AMARE [13] [%] | herbicidal effect LOLRI (Lolium rigidum (LOLRI) [14]) [%] | herbicidal effect AVEFA (Avena fatua [15]) [%] | herbicidal effect ABUTH [16] [%] | herbicidal activity ECHCG [17] [%] | herbicidal effect VERPE (Veronica persica (VERPE) [19]) [%] | herbicidal effect STEME (Stellaria media (STEME) [20]) [%] | herbicidal activity POAAN (Poa annua (POAAN) [21]) [%] | also measured
1 | Fc1ccc(-c2nc3ncsc3cc2Cl)c(F)c1 [Example I-127] | 90 | 90 | 80 | 80 | 90 | 80 | 90 | 100 | 100 | 90 | 80 | 90 | 80 | 80 | 90 | – | – | – | – | – | –
2 | Clc1cc2scnc2nc1-c1sccc1Cl [Example I-189] | 90 | 90 | – | 80 | 80 | 80 | 90 | 100 | 100 | 80 | – | 100 | 80 | – | – | 80 | 100 | 90 | 90 | 90 | herbicidal activity SETVI (Setaria viridis (SETVI) [18]): 90%; herbicidal effect KCHSC [22]: 90%; herbicidal activity AMARE [23]: 90%; ECHCG, herbicidal effect in percent (%) [24]: 100%; herbicidal effect SETVI (Setaria viridis (SETVI) [25]): 100%; herbicidal effect VERPE (Veronica persica (VERPE) [26]): 90%; herbicidal effect MATIN [27]: 90%; herbicidal effect STEME (Stellaria media (STEME) [28]): 90%; POAAN, herbicidal effect in percent (%) (Poa annua (POAAN) [29]): 100%; herbicidal effect KCHSC [30]: 90%; ALOMY, herbicidal effect in percent (%) [31]: 90%; herbicidal effect AMARE [32]: 90%; LOLRI, herbicidal effect in percent (%) (Lolium rigidum (LOLRI) [33]): 90%
3 | Fc1cccc(F)c1-c1nc2ncsc2cc1Cl [Example I-087] | 90 | 90 | 80 | 90 | 90 | 80 | 90 | 100 | 100 | 90 | 90 | 100 | 80 | 100 | 80 | 90 | – | – | – | – | herbicidal effect LOLRI (Lolium rigidum (LOLRI) [34]): 80%; herbicidal effect VIOTR (Viola tricolor (VIOTR) [35]): 80%; herbicidal effect POLCO [36]: 90%; herbicidal effect AVEFA (Avena fatua [37]): 80%
4 | Cc1ccccc1-c1nc2ncsc2cc1C [Example I-018] | – | 80 | 90 | 80 | 100 | – | 90 | 100 | 100 | 90 | 90 | 100 | 90 | 100 | – | 80 | – | – | – | – | herbicidal effect AMARE [38]: 90%; herbicidal effect POLCO [36]: 90%; herbicidal effect DIGSA [39]: 100%; herbicidal effect DIGSA [40]: 90%
5 | Cc1ccsc1-c1nc2ncsc2cc1Cl [Example I-192] | 100 | 80 | – | 80 | – | – | 90 | 100 | 100 | 90 | – | 100 | 100 | 100 | – | – | 100 | 100 | 90 | 90 | herbicidal activity ABUTH [41]: 100%; herbicidal effect KCHSC [22]: 90%; herbicidal activity ALOMY [42]: 100%; herbicidal activity AMARE [23]: 100%; ECHCG, herbicidal effect in percent (%) [24]: 100%; herbicidal effect SETVI (Setaria viridis (SETVI) [25]): 100%; herbicidal effect VERPE (Veronica persica (VERPE) [26]): 90%; herbicidal effect MATIN [27]: 100%; herbicidal effect STEME (Stellaria media (STEME) [28]): 100%; POAAN, herbicidal effect in percent (%) (Poa annua (POAAN) [29]): 100%; herbicidal effect KCHSC [30]: 100%; ALOMY, herbicidal effect in percent (%) [31]: 100%; LOLRI, herbicidal effect in percent (%) (Lolium rigidum (LOLRI) [33]): 100%; herbicidal effect AVEFA (Avena fatua [37]): 80%
